Active and inactive are the calls of the source. The rule behind the calls is not given here.
How the values were obtained:
[1] = target: T1, Fatty-acid amide hydrolase 1 (Rattus norvegicus) (UniProt P97612); test: Inhibition of rat histidine tagged FAAH expressed in Escherichia coli at 10 uM by coumarin ester substrate fluorescence assay
T1 sequence (whole entry): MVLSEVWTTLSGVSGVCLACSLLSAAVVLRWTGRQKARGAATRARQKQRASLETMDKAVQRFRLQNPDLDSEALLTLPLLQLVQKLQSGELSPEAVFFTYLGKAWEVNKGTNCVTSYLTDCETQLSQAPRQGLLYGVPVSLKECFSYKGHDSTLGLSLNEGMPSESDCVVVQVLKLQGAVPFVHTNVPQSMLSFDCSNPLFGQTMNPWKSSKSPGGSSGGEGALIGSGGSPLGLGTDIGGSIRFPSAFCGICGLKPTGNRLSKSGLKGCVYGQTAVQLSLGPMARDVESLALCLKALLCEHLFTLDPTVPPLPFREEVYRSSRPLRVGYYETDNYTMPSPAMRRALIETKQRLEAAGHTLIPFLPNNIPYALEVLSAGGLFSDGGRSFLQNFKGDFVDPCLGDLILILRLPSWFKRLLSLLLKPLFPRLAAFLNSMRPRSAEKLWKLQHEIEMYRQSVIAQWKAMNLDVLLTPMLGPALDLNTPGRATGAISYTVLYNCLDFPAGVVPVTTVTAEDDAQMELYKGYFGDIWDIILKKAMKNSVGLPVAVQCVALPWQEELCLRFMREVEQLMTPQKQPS

Sus scrofa = species: Sus scrofa; test: Inhibition of porcine pancreatic lipase type 2 at 10 uM by FRET assay
Bacteria = test: Inhibition of bacterial lipoprotein lipase at 10 uM by FRET assay
[2] = target: T2, Diacylglycerol lipase-alpha (Homo sapiens) (UniProt Q9Y4D2); test: Inhibition of human DAGLalpha expressed in HEK293T cell membrane using [14C]SAG substrate at 10 uM in detergent free solution by […]; type: cell-based; conditions: HEK-293T
T2 sequence (whole entry): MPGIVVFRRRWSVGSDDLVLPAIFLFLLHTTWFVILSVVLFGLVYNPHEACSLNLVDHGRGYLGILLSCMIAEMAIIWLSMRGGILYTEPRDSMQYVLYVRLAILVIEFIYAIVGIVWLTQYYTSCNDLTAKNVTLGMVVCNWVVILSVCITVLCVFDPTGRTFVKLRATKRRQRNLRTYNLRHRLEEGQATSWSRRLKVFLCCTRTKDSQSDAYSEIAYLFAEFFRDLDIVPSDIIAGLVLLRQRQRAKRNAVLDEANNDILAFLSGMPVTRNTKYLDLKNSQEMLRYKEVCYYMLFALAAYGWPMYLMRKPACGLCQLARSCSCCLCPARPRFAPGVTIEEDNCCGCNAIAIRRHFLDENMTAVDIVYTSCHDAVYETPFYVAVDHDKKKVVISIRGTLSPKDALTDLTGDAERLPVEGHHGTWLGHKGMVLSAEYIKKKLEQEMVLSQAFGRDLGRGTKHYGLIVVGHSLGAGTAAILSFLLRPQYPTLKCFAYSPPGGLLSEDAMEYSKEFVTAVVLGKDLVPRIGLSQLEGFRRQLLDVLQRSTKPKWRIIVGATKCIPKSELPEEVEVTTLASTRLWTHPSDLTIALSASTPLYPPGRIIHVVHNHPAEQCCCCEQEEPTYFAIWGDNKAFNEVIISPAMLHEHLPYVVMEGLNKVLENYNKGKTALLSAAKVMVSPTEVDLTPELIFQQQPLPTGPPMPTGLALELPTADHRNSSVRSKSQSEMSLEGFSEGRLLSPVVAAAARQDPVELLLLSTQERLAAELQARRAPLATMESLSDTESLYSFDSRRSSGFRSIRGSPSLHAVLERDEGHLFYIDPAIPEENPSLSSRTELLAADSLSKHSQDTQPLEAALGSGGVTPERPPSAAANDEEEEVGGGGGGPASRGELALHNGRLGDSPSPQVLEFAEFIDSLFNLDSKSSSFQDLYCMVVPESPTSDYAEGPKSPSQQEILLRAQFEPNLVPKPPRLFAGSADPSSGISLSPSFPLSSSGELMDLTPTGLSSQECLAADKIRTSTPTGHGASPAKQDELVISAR

[3] = target: T3, Diacylglycerol lipase-alpha (Mus musculus) (UniProt Q6WQJ1); test: Inhibition of mouse DAGLalpha expressed in HEK293T cell membrane using [14C]SAG substrate at 10000 nM by scintillation counting based radio-TLC assay; type: cell membranes; conditions: HEK-293T
T3 sequence (whole entry): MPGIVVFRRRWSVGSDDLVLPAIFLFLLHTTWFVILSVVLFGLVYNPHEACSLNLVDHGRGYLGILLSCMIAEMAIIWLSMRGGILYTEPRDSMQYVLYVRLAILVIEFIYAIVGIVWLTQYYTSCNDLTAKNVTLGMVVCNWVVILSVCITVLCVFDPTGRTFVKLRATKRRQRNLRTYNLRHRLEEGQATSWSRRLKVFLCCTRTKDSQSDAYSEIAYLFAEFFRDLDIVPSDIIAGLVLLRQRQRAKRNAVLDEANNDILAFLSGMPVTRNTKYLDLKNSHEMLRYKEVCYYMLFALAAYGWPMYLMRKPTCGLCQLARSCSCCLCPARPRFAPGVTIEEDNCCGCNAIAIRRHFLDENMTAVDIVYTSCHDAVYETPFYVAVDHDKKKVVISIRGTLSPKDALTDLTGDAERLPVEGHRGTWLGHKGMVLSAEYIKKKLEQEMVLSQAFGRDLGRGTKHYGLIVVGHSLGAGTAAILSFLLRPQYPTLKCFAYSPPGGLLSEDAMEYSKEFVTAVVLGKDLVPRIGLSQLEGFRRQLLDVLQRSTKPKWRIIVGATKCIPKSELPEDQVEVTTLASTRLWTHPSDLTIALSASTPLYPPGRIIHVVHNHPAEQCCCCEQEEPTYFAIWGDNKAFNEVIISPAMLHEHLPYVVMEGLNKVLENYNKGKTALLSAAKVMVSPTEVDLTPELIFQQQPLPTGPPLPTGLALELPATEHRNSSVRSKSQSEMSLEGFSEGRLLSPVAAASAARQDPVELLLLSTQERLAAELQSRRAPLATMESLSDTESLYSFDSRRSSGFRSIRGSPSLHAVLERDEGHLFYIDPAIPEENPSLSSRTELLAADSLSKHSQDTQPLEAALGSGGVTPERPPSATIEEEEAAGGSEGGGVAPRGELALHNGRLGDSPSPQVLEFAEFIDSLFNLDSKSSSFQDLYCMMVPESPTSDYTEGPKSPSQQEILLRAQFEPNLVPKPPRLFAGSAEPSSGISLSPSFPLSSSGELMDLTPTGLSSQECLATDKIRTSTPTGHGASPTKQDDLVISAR

[4] = target: T3, Diacylglycerol lipase-alpha (Mus musculus); test: Inhibition of mouse DAGLalpha expressed in HEK293T cell membrane using [14C]SAG substrate at 10 nM by scintillation counting based radio-TLC assay; type: cell membranes; conditions: HEK-293T
[5] = target: T4, Monoglyceride lipase (Homo sapiens) (UniProt Q99685); test: Inhibition of human N-terminal histidine tagged full length MAGL expressed in Escherichia coli at 10 uM by coumarin ester substrate fluorescence assay
T4 sequence (whole entry): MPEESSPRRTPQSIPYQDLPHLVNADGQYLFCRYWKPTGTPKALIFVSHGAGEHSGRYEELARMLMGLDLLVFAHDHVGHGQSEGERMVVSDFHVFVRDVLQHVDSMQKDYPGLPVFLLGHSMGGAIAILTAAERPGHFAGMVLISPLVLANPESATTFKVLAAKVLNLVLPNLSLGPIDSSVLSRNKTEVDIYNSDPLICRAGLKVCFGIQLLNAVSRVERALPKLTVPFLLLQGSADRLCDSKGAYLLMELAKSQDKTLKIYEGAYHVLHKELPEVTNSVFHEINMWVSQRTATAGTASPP

[6] = target: T2, Diacylglycerol lipase-alpha (Homo sapiens); test: Inhibition of human DAGLalpha expressed in HEK293T cell membrane using [14C]SAG substrate at 10 uM in detergent free solution by scintillation counting based radio-TLC assay; conditions: HEK-293T
[7] = target: T2, Diacylglycerol lipase-alpha (Homo sapiens); test: Inhibition of human DAGLalpha expressed in HEK293T cell membrane using [14C]SAG substrate at 10 uM using JZL184 pretreated protein in detergent free solution by […]; type: cell-based; conditions: HEK-293T
Cannabinoid receptor 2 [8] = target: Cannabinoid receptor 2 (Homo sapiens, UniProt P34972); test: Displacement of [3H]CP55940 from human CB2 receptor expressed in HEK293 cells; type: cell-based
Cannabinoid receptor 2 [9] = target: Cannabinoid receptor 2 (Mus musculus, UniProt P47936); test: Displacement of [3H]CP55940 from CB2 receptor in mouse spleen membrane; type: cell membranes
Cannabinoid receptor 1 = Cannabinoid receptor 1 (Rattus norvegicus, UniProt P20272); type: cell membranes, Brain
Sequence of Cannabinoid receptor 1 (P20272 whole entry): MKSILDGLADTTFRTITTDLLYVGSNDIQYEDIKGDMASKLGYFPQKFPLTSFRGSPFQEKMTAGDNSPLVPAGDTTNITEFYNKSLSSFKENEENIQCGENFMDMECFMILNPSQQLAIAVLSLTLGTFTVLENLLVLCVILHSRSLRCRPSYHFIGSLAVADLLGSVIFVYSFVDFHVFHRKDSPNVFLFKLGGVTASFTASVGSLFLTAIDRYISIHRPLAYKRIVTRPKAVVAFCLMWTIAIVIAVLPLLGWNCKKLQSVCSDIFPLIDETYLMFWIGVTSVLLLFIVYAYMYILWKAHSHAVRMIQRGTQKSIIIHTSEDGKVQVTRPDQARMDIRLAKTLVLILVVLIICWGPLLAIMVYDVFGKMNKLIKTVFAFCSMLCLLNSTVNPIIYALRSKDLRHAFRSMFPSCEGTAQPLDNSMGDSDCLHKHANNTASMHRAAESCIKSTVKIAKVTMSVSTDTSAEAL
Description: Displacement of [3H]CP55940 from CB1 receptor in rat brain synaptosome membrane

Sequence of Cannabinoid receptor 2 (Homo sapiens, UniProt P34972) (P34972 whole entry): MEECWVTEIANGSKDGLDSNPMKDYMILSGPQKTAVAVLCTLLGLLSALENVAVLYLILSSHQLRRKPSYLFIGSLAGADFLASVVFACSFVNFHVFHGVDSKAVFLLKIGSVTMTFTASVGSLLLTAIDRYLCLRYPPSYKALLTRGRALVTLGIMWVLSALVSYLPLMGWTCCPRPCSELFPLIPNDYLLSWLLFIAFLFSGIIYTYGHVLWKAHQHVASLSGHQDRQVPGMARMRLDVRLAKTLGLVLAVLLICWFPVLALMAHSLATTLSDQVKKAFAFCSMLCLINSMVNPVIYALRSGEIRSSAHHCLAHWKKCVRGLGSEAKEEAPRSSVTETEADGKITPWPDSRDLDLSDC
Sequence of Cannabinoid receptor 2 (Mus musculus, UniProt P47936) (P47936 whole entry): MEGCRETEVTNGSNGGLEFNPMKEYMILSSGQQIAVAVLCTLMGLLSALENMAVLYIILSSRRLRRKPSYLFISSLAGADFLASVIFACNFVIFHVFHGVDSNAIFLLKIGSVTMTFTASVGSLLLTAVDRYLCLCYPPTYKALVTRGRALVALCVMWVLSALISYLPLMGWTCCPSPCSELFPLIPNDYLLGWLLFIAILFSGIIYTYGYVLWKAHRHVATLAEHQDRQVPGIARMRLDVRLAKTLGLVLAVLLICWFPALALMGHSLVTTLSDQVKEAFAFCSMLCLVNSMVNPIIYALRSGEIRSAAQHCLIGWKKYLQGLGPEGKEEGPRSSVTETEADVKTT

| Compound | inhibition [1] | inhibition (Sus scrofa) | inhibition (Bacteria) | inhibition [2] | inhibition [3] | inhibition [4] | inhibition [5] | inhibition [6] | inhibition [7] | Ki (Cannabinoid receptor 2 [8]) | Ki (Cannabinoid receptor 2 [9]) | Ki (Cannabinoid receptor 1) |
| --- | --- | --- | --- | --- | --- | --- | --- | --- | --- | --- | --- | --- |
| CCCCCCCCCCCCCCCCS(=O)(=O)F | 100% | – | – | – | – | – | – | – | – | – | – | – |
| NC(=O)c1cccc(-c2cccc(OC(=O)NC3CCCCC3)c2)c1 | – | 68% | 21% | 22% | < 0% | inactive | 18% | inactive | 7% | – | – | – |
| O=C(Oc1ccc([N+](=O)[O-])cc1)N1CCN(Cc2cccc(Oc3ccccc3)c2)CC1 | – | 43% | < 0% | 84% | 10% | inactive | – | inactive | 55% | – | – | – |
| CCCCCCCC/C=C\CCCCCCCC(=O)OC(COC)COC(=O)NCCCCCCCC (racemic) | inactive | – | – | – | – | – | inactive | – | – | > 1 µM | > 1 µM | > 1 µM |
| CCCCCCCC(=O)OC(CNC(=O)ON=C1CCCCC1)COC (racemic) | inactive | – | – | – | – | – | inactive | – | – | > 1 µM | > 1 µM | > 1 µM |
| CCCCC/C=C\C/C=C\C/C=C\C/C=C\CCCC(=O)OC(COC)COC(=O)NCCCCCCCC (racemic) | inactive | – | – | – | – | – | inactive | – | – | > 1 µM | > 1 µM | > 1 µM |
| CCCCCCCC/C=C\CCCCCCCC(=O)OC(CNC(=O)ON=C1CCCCC1)COC (racemic) | inactive | – | – | – | – | – | inactive | – | – | > 1 µM | > 1 µM | > 1 µM |
| CCCCCCCCNC(=O)OCC(COC)OC(=O)NCCCCCCCC (racemic) | inactive | – | – | – | – | – | inactive | – | – | > 1 µM | > 1 µM | > 1 µM |
| COCC(CNC(=O)ON=C1CCCCC1)OC(=O)CCCc1ccc(-c2ccccc2)cc1 (racemic) | inactive | – | – | – | – | – | inactive | – | – | > 1 µM | > 1 µM | > 1 µM |
| CCCCCCCCOC(=O)NCC(COC)OC(=O)CCCCCCC (racemic) | inactive | – | – | – | – | – | inactive | – | – | > 1 µM | > 1 µM | > 1 µM |
| CCCCCCCC/C=C\CCCCCCCC(=O)OC(CNC(=O)OCCCCCCCC)COC (racemic) | inactive | – | – | – | – | – | inactive | – | – | > 1 µM | > 1 µM | > 1 µM |
| CCCCCCCC(=O)NCC(COC)OC(=O)CCCCCCC (racemic) | inactive | – | – | – | – | – | inactive | – | – | > 1 µM | > 1 µM | > 1 µM |
| COCC(COC(=O)CCCc1ccc(-c2ccccc2)cc1)OC(=O)CCCc1ccc(-c2ccccc2)cc1 (racemic) | inactive | – | – | – | – | – | inactive | – | – | > 1 µM | > 1 µM | > 1 µM |
| CCCCCCCC/C=C\CCCCCCCC(=O)OC(CNC(=O)CCCCCCC)COC (racemic) | inactive | – | – | – | – | – | inactive | – | – | > 1 µM | > 1 µM | > 1 µM |
| CCCCCCCCNC(=O)OCC(OC)O[Si](c1ccccc1)(c1ccccc1)C(C)(C)C (racemic) | inactive | – | – | – | – | – | inactive | – | – | > 1 µM | > 1 µM | > 1 µM |
| COCC(CNC(=O)CCCc1ccc(-c2ccccc2)cc1)OC(=O)CCCc1ccc(-c2ccccc2)cc1 (racemic) | inactive | – | – | – | – | – | inactive | – | – | > 1 µM | > 1 µM | > 1 µM |
| CCCCCCCCNC(=O)OCC(COC)OC(=O)CCCCCCC (racemic) | inactive | – | – | – | – | – | inactive | – | – | > 1 µM | > 1 µM | > 1 µM |
| COCC(O)CNC(=O)ON=C1CCCCC1 (racemic) | inactive | – | – | – | – | – | inactive | – | – | > 1 µM | > 1 µM | – |
| CCCCCCCC(=O)OCC(COC)OC(=O)CCCCCCC (racemic) | inactive | – | – | – | – | – | inactive | – | – | > 1 µM | > 1 µM | > 1 µM |

From ChEMBL document CHEMBL2169869, “Assay and inhibition of diacylglycerol lipase activity” (Bioorg Med Chem Lett, 2012)
